According to patent publication US8119624B2, “Fused phenyl amido heterocyclic compounds” (Pfizer Inc., priority 2006, dated 2012):
pEC50: −log10 of the molar value. Read-outs that look alike come from different tables or passages of the source.

Molecular target: T1, Full-length glucokinase (beta cell isoform) (Homo sapiens, UniProt P35557)
T1 construct: Full-length glucokinase (beta cell isoform) was His-tagged at N-terminus; His tag (N); made in house
T1 sequence (P35557 1-465): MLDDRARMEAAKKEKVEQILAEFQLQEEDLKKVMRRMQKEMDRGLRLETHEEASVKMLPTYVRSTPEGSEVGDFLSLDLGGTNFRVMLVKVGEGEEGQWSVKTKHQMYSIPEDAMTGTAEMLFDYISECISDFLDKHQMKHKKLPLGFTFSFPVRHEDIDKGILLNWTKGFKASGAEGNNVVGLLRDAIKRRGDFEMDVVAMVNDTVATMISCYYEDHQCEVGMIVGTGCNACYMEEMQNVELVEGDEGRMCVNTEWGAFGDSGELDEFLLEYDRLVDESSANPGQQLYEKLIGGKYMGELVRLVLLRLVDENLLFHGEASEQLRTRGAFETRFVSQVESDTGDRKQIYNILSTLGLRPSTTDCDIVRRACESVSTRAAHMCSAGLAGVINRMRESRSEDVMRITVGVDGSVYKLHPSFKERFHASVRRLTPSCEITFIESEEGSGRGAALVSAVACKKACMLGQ
Experiment: Glucokinase biochemical assay (PK/LDH-coupled, NADH depletion at 340 nm): % activation, EC50, % max activation
Conditions: 5 mM glucose; for pEC50: read-out: EC50; for activation at 10 µM: read-out: % Activation at 10 uM; for Emax: read-out: % Max Activation
Method in brief: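 Activation expressed as (Va/Vo−1)×100, where initial rates with and without compound come from NADH depletion at 340 nm over 200–900 s. Enzyme is His-tagged human beta-cell GK, full length, run at room temperature in HEPES buffer with 1 mM ATP and 5 mM glucose. DMSO 1%.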

[1] = 10 uM compound, % Activation=(Va/Vo−1)×100

Row | SMILES | pEC50 (GK activation) | activation at 10 µM [1] [%] | Emax (fitted maximum activation) [%] | further results
1 | COCC1(C)Cc2c(Oc3ccc(S(=O)(=O)C4CC4)cc3)cc(C(=O)Nc3ccn(C)n3)cc2O1 (single isomer, unassigned; (+)) [Example 248, (+)-4-(4-Cyclopropanesulfonyl-phenoxy)-2-methoxymethyl-2-methyl-2,3-dihydro-benzofuran-6-carboxylic acid (1-methyl-1H-pyrazol-3-yl)-amide] | 6.31 |  |  | % Activation at 10 uM [1]: 222%; % Max Activation (fitted maximum activation): 225%
2 | CN(C)C(=O)c1ccc(Oc2cc(C(=O)Nc3ccon3)cc3c2CC(C)(C)O3)cc1 [Example 158, 4-(4-Dimethylcarbamoyl-phenoxy)-2,2-dimethyl-2,3-dihydro-benzofuran-6-carboxylic acid isoxazol-3-ylamide] | 6.33 | 115 | 106 | 
3 | Cc1cc2c(Oc3ccc(S(=O)(=O)N(C)C)c(F)c3)cc(C(=O)Nc3cnc(N(C)C)cn3)cc2o1 [Example 308, N-[5-(Dimethylamino)pyrazin-2-yl]-4-{4-[(dimethylamino)-sulfonyl]-3-fluorophenoxy}-2-methyl-1-benzofuran-6-carboxamide] | 6.96 | 141 | 131 | 
4 | CC(C)Oc1cc(C(=O)Nc2ccn(C)n2)cc2c1CC(CNC1CC1)O2 (centres unmarked) [Example 219, 2-Cyclopropylaminomethyl-4-isopropoxy-2,3-dihydro-benzofuran-6-carboxylic acid (1-methyl-1H-pyrazol-3-yl)-amide] |  | 8 |  | 
5 | CN(C)C(=O)c1ncc(Oc2cc(C(=O)Nc3ccn(C)n3)cc3c2CC(C)(C)O3)cn1 [Example 164, 5-[2,2-Dimethyl-6-(1-methyl-1H-pyrazol-3-ylcarbamoyl)-2,3-dihydro-benzofuran-4-yloxy]-pyrimidine-2-carboxylic acid dimethylamide] | 6.60 | 112 | 102 | 
6 | Cc1ccc(NC(=O)c2cc(Oc3ccc(C(=O)N(C)C)cc3)c3occc3c2)nc1 [Example 335, 7-{4-[(Dimethylamino)carbonyl]phenoxy}-N-(5-methylpyridin-2-yl)-1-benzofuran-5-carboxamide] |  | 26 |  | 
7 | Cc1cc2c(Oc3ccc(S(C)(=O)=O)cc3)cc(C(=O)Nc3ccc(C#N)cn3)cc2o1 [Example 261, N-(5-cyanopyridin-2-yl)-2-methyl-4-(4-(methylsulfonyl)-phenoxy)benzofuran-6-carboxamide] | 5.10 | 58.8 | 81 | 
8 | Cc1ccc(NC(=O)c2cc(Oc3ccc(S(C)(=O)=O)cc3)c3ocnc3c2)nc1 [Example 367, N-(5-methylpyridin-2-yl)-7-[4-(methylsulfonyl)phenoxy]-1,3-benzoxazole-5-carboxamide] | 5.24 | 47 | 59 | 
9 | Cc1cc2c(Oc3ccc(S(C)(=O)=O)cc3)cc(C(=O)Nc3ccc(F)cn3)cc2o1 [Example 256, N-(5-Fluoropyridin-2-yl)-2-methyl-4-(4-(methylsulfonyl)-phenoxy)benzofuran-6-carboxamide] | 5.35 | 89.2 | 126 | 
10 | CC(C)Oc1cc(C(=O)Nc2ccn(C)n2)cc2c1CC(Cc1ccccc1)O2 (centres unmarked) [Example 221, 2-Benzyl-4-isopropoxy-2,3-dihydro-benzofuran-6-carboxylic acid (1-methyl-1H-pyrazol-3-yl)-amide] |  | 8.4 |  | 
11 | CC(CN1CCOCC1)Oc1cc(C(=O)Nc2ccn(C)n2)cc2c1CC(C)(C)O2 (centres unmarked) [Example 85, 2,2-Dimethyl-4-(1-methyl-2-morpholin-4-yl-ethoxy)-2,3-dihydro-benzofuran-6-carboxylic acid (1-methyl-1H-pyrazol-3-yl)-amide] |  | 12 |  | 
12 | Cc1cc2c(Oc3ccc(S(C)(=O)=O)cc3)cc(C(=O)Nc3ccc4c(n3)CCC4)cc2o1 [Example 254, N-(6,7-Dihydro-5H-cyclopenta[b]pyridin-2-yl)-2-methyl-4-(4-(methylsulfonyl)-phenoxy)benzofuran-6-carboxamide] | 5.47 | 53.3 | 71 | 
13 | CN(C)C(=O)c1ccc(Oc2cc(C(=O)Nc3ccn(C)n3)cc3c2CC(C)(C)O3)cc1F [Example 54, 4-(4-Dimethylcarbamoyl-3-fluoro-phenoxy)-2,2-dimethyl-2,3-dihydro-benzofuran-6-carboxylic acid(1-methyl-1H-pyrazol-3-yl)-amide] | 7.09 | 83.3 | 101 | 
14 | CC(Oc1cc(C(=O)Nc2ccn(C)n2)cc2c1CC(C)(C)O2)c1ccncn1 (centres unmarked) [Example 86, 2,2-Dimethyl-4-(1-pyrimidin-4-yl-ethoxy)-2,3-dihydro-benzofuran-6-carboxylic acid (1-methyl-1H-pyrazol-3-yl)-amide] | 5.32 | 124 | 159 | 
15 | Cn1ccc(NC(=O)c2cc(Oc3ccc(S(C)(=O)=O)cc3)c3cc(C(=O)N4CCC4)oc3c2)n1 [Example 291, 2-(Azetidin-1-ylcarbonyl)-N-(1-methyl-1H-pyrazol-3-yl)-4-[4-(methylsulfonyl)-phenoxy]-1-benzofuran-6-carboxamide] |  | 12.7 |  | 
16 | COc1cnc(NC(=O)c2cc(Oc3ccc(S(=O)(=O)N4CCC4)cc3)c3cc(C)oc3c2)cn1 [Example 303, 4-(4-(Azetidin-1-ylsulfonyl)phenoxy)-N-(5-methoxypyrazin-2-yl)-2-methyl-benzofuran-6-carboxamide] | 6.19 | 195 | 179 | 
17 | Cn1ccc(NC(=O)c2cc(Oc3ccc(C(=O)N4CC(F)(F)C4)cc3F)c3c(c2)OC(C)(C)C3)n1 [Example 43, 4-[4-(3,3-Difluoro-azetidine-1-carbonyl)-2-fluoro-phenoxy]-2,2-dimethyl-2,3-dihydro-benzofuran-6-carboxylic acid(1-methyl-1H-pyrazol-3-yl)-amide] | 6.14 | 164 | 174 | 
18 | COCc1cc2c(Oc3ccc(S(C)(=O)=O)cc3)cc(C(=O)Nc3ccn(C)n3)cc2o1 [Example 310, 2-(Methoxymethyl)-N-(1-methyl-1H-pyrazol-3-yl)-4-[4-(methylsulfonyl)-phenoxy]-1-benzofuran-6-carboxamide] | 6.14 | 118 | 137 | 
19 | Cc1nc(COc2cc(C(=O)Nc3ccn(C)n3)cc3c2CC(C)(C)O3)cs1 [Example 90, 2,2-Dimethyl-4-(2-methyl-thiazol-4-ylmethoxy)-2,3-dihydro-benzofuran-6-carboxylic acid (1-methyl-1H-pyrazol-3-yl)-amide] | 5.25 | 112 | 138 | 
20 | Cn1ccc(NC(=O)c2cc(Oc3ccc(S(C)(=O)=O)cc3F)c3c(c2)OC(C)(C)C3)n1 [Example 121, 4-(2-Fluoro-4-methanesulfonyl-phenoxy)-2,2-dimethyl-2,3-dihydro-benzofuran-6-carboxylic acid (1-methyl-1H-pyrazol-3-yl)-amide] | 6.30 | 124 | 152 | 
21 | Cc1ccc(NC(=O)c2cc(Oc3ccc(S(=O)(=O)C4CC4)c(F)c3)c3c(c2)OC(C)(CO)C3)nc1 (single isomer, unassigned; (+)) [Example 401, (+)-4-(4-Cyclopropanesulfonyl-3-fluoro-phenoxy)-2-hydroxymethyl-2-methyl-2,3-dihydro-benzofuran-6-carboxylic acid(5-methyl-pyridin-2-yl)-amide] |  |  |  | pEC50 (1 mM ATP, room temperature): 6.54; activation at 10 µM (compound at 10 uM, 1 mM ATP, room temperature): 131%; Emax (fitted maximum activation, 1 mM ATP): 139%
